Values after ≈ are worked out from the molar mass of the structure shown.

Series [1] relates to ICR mice. The series is described as follows: Mouse acute toxicity test. The class given is in vivo. The method, then: Massatide A was dissolved in saline to the required concentration for the experiments. Six-week-old specific pathogen-free male ICR mice weighing 18–20 g were randomly divided into 4 groups (4 per group) and administered in a single intraperitoneal injection. Group 1 animals received 0.9% saline only, while groups 2–4 were given massatide A at 10, 30, and 50 mg/kg, respectively. The animals were continuously observed for general behavioral changes for 5 days and survival rate was recorded.

In series [2] the test system is Micrococcus luteus DSM1790. The experiment in a line: Kirby-Bauer assay, zone of inhibition (agar well). It counts as cell-based. The note with it: M. luteus DSM1790; 10 μL DMSO stock (3.2 or 1.6 mg/mL) in well of soft LB agar, 30 °C, 20 h. As for the experimental part:
(§1) The stock solution of massatide A (1) and B (1a) 3.2 mg/mL were prepared in DMSO. 40 μL overnight culture of Micrococcus luteus DSM1790 was added to 20 mL soft Luria-Bertani agar (1% agar), and then poured into a plate. 10 μL tip was used to make two wells on the plate. 10 μL massatide A (1) or B (1a) solution was added in one of the wells, while in the other well, 10 μL DMSO was added as a negative control. The plates were incubated at 30 °C for 20 h to observe the zone of inhibition. Staphylococcus aureus ATCC25923 was also used to observe the inhibition zone using a similar method. The only difference is incubating at 37 °C. Stock solutions of sistertide A1, kebanetide A1 and A2 were 3.2 mg/mL, 1.6 mg/mL and 1.6 mg/mL, respectively. The method to observe the activity of these compounds individually was the same as that of massatide.

The test system of series [3] is Staphylococcus aureus ATCC25923. The experiment in a line: Kirby-Bauer assay, zone of inhibition (agar well). The settings on record: S. aureus ATCC25923; 10 μL of 3.2 mg/mL DMSO stock in well of soft LB agar, 37 °C, 20 h. It counts as cell-based. As for the experimental part:
as §1

Series [4] relates to S. aureus ATCC 25923. The series is described as follows: Lysis of S. aureus culture. The note with it: S. aureus ATCC 25923 culture OD600 1.0, 10×MIC, 24 h. It counts as cell-based, Staphylococcus aureus. As for the experimental part:
(§2) Growth kinetics of S. aureus
Massatide A or B was prepared in a 96-well plate at the concentration of 8×MIC, 4×MIC, 2×MIC, 1×MIC and 0.5×MIC , respectively. The MHB medium with no compound was used as a control. Then, the overnight culture of S. aureus ATCC 25923 cells was added to the medium at 1:1,000. The plate was incubated with shaking in SpectraMax iD3 (MOLECULAR DEVICES) at 30 ℃. OD600 was measured every 30 min for 36 hours. To analyze the lysis, 1mL of S. aureus ATCC 25923 culture (OD600 1.0) was treated with massatide A or vancomycin (10×MIC) for 24h. An untreated sample was used as a negative control. […]
Experiments were performed in triplicate. […]

A short description of series [5]: Mammalian cytotoxicity, CCK-8 assay. The class given is cell-based. The settings on record: human. The method, then: Bioactivity assay of the crude extract
Protease stability of massatide A
Thermal stability of massatide A […]
and 1% penicillin -streptomycin. […]
and CO 2-controllable incubator with 5% CO 2. All the cell experiments were performed […]
Cell viability was determined by the CCK -8 assay. HeLa and Hek -293T cells were […]
µg/ml. At the end of the fixed incubation period (24 h), cells were washed with PBS to remove excess compound. We added 100 µl fresh medium and 10 µl CCK-8 reagent.
After 2 h incubation at 37°C, absorbance at 450 nm was recorded using a microplate reader. All experiments were performed in triplicate (n=3 independent experiments).
as §2
Massatide A or B was prepared in a 96-well plate at the concentration of 8×MIC, 4×MIC, 2×MIC, 1×MIC and 0.5×MIC , respectively. The MHB medium with no compound was used as a control. Then, the overnight culture of S. aureus ATCC 25923 cells was added to the medium at 1:1,000. The plate was incubated with shaking in SpectraMax iD3 (MOLECULAR DEVICES) at 30 ℃. OD600 was measured every 30 min for 36 hours. To analyze the lysis, 1mL of S. aureus ATCC 25923 culture (OD600 1.0) was treated with massatide A or vancomycin (10×MIC) for 24h. An untreated sample was used as a negative control.
Time-dependent killing assay
An overnight culture of S. aureus ATCC 25923 cells was diluted at 1:10,000 in MHB medium and incubated at 37 ℃, 200 rpm for 2 hours to reach the early exponential.
Then, massatide A or vancomycin was added to the culture at the concentration of 10×MIC. Bacteria were still cultivated at 37 ℃, 200 rpm. Culture with no antibiotics was used as a negative control. 10 μL aliquots were removed at intervals, centrifuged, and resuspended in 1 ml PBS. Serially diluted (10-fold) suspensions were plated on MHB agar and incubated at 37 ℃ overnight for counting of colony-forming units.
Experiments were performed in triplicate.
Sequential culturing of S. aureus ATCC 25923 was performed in the presence of a subinhibitory concentration of massatide A to observe whether the resistance developed. […]
A general note: Tetrazolium assays rely on reduction of a dye to a coloured formazan, in cell work by metabolically active cells.

Consider `C/C=C1\NC(=O)C(N(C)C)C(C)SC[C@@H](C(=O)N[C@H](CC)C(=O)N[C@H](C(=O)N[C@@H](C)C(=O)N[C@H](C)C(=O)N[C@@H](Cc2ccccc2)C(=O)N[C@@H](C)C(=O)NC2C(=O)NCC(=O)N[C@@H](Cc3ccc(O)cc3)C(=O)N[C@@H](Cc3ccccc3)C(=O)N[C@H](C)C(=O)N/C=C\SC2C)C(C)C)NC(=O)[C@@H]2CCCN2C(=O)[C@H](C(C)C)NC1=O` (some centres unmarked) [Massatide A (1), massatide A], for which the “number of new dead mouse” value in series [1] (10 mg/kg i.p., day 1, 4 mice per group) was found to be 0; in series [1] (10 mg/kg i.p., day 2, 4 mice per group) it was 0; in series [1] (10 mg/kg i.p., day 3, 4 mice per group), 0; in series [1] (10 mg/kg i.p., day 5, 4 mice per group), 0; in series [1] (30 mg/kg i.p., day 1, 4 mice per group), 0; in series [1] (30 mg/kg i.p., day 2, 4 mice per group) it was 0. Besides, the “number of new dead mouse” value in series [1] (30 mg/kg i.p., day 3, 4 mice per group) was determined as 0; in series [1] (30 mg/kg i.p., day 5, 4 mice per group) it was 0; in series [1] (50 mg/kg i.p., day 1, 4 mice per group), 0; in series [1] (50 mg/kg i.p., day 2, 4 mice per group), 0; in series [1] (50 mg/kg i.p., day 3, 4 mice per group), 0; in series [1] (50 mg/kg i.p., day 5, 4 mice per group) it was 0. The “survival / signs of acute toxicity” value in series [1] (male ICR mice, single intraperitoneal injection, 10-50 mg/kg, 5 days, 4 per group) is listed as “all treated mice survived without any signs of acute toxicity”. The “inhibitory activity (zone of inhibition)” value in series [2] and in series [3] was “strong inhibitory activity” each time. Further, the “lysis of the cell culture” value in series [4] is listed as “did not result in lysis”. The IC50 at 24 h in series [5] is 136 µg/mL (≈ 83.4 µM).

Usually IC50 stands for the concentration at which inhibition is half-maximal. Low readings indicate inhibition by little substance, high ones a need for much substance.
